Read-outs that look alike come from different tables or passages of the source.
Columns and labels:
[1] = biological target: LRRK2, WT (GST-tagged truncated LRRK2) (Homo sapiens, UniProt Q5S007); experiment: LRRK2 kinase assay (LanthaScreen), wild type; type: biochemical
Method: (§1) LRRK2 kinase activity was measured using Lantha Screen technology from Invitrogen. GST-tagged truncated LRRK2 from Invitrogen (Cat #PV4874) was incubated with a fluorescein-labeled peptide substrate based upon ezrin/radixin/moesin (ERM), also known as LRRKtide (Invitrogen cat #PR8976A), in the presence of a dose response of compound. Upon completion, the assay was stopped and detected with a terbium labeled anti-phospho-ERM antibody (Invitrogen, cat #PR8975A). […] Using Echo acoustic dispensing, 60 nL of compound was transferred to a low volume Corning 384-well assay plate. 3 μL of a working solution of substrate (200 nM LRRKtide, 2 mM ATP) prepared in assay buffer (50 mM HEPES, pH 7.5, 3 mM MgCl2, with 2 mM DTT and 0.01% Brij35 added fresh) was added to the 60 nL compound assay plate. The kinase reaction was started with 3 μL of a working solution of LRRK2 enzyme at a concentration of 4 μg/m L. The final reaction concentrations were 100 nM LRRKtide, 1 mM ATP, 2 μg/mL LRRK2 enzyme and a compound dose response with a top dose of 3 μM. The reaction was allowed to progress at room temperature for 30 minutes and then stopped with the addition of 6 μL of detection buffer (20 mM Tris pH 7.6, 0.01% NP-40, 6 mM EDTA with 2 nM terbium labeled antiphospho-ERM). […] All final concentrations of substrate ATP and enzyme were the same.

mutant G2019S LRRK2 = mutant G2019S LRRK2 (Homo sapiens (Human), UniProt Q5S007, G2019S); experiment: LRRK2 kinase assay (LanthaScreen), G2019S mutant; type: biochemical; conditions: G2019S mutant LRRK2, read-out: LRRK2, G2019S IC50
Method: as §1

[2] = wild type LRRK2, LanthaScreen, LRRKtide substrate
[3] = LanthaScreen, LRRKtide substrate
[4] = LanthaScreen, LRRKtide substrate, 1 mM ATP

Chain of mutant G2019S LRRK2 (Q5S007 whole entry G2019S): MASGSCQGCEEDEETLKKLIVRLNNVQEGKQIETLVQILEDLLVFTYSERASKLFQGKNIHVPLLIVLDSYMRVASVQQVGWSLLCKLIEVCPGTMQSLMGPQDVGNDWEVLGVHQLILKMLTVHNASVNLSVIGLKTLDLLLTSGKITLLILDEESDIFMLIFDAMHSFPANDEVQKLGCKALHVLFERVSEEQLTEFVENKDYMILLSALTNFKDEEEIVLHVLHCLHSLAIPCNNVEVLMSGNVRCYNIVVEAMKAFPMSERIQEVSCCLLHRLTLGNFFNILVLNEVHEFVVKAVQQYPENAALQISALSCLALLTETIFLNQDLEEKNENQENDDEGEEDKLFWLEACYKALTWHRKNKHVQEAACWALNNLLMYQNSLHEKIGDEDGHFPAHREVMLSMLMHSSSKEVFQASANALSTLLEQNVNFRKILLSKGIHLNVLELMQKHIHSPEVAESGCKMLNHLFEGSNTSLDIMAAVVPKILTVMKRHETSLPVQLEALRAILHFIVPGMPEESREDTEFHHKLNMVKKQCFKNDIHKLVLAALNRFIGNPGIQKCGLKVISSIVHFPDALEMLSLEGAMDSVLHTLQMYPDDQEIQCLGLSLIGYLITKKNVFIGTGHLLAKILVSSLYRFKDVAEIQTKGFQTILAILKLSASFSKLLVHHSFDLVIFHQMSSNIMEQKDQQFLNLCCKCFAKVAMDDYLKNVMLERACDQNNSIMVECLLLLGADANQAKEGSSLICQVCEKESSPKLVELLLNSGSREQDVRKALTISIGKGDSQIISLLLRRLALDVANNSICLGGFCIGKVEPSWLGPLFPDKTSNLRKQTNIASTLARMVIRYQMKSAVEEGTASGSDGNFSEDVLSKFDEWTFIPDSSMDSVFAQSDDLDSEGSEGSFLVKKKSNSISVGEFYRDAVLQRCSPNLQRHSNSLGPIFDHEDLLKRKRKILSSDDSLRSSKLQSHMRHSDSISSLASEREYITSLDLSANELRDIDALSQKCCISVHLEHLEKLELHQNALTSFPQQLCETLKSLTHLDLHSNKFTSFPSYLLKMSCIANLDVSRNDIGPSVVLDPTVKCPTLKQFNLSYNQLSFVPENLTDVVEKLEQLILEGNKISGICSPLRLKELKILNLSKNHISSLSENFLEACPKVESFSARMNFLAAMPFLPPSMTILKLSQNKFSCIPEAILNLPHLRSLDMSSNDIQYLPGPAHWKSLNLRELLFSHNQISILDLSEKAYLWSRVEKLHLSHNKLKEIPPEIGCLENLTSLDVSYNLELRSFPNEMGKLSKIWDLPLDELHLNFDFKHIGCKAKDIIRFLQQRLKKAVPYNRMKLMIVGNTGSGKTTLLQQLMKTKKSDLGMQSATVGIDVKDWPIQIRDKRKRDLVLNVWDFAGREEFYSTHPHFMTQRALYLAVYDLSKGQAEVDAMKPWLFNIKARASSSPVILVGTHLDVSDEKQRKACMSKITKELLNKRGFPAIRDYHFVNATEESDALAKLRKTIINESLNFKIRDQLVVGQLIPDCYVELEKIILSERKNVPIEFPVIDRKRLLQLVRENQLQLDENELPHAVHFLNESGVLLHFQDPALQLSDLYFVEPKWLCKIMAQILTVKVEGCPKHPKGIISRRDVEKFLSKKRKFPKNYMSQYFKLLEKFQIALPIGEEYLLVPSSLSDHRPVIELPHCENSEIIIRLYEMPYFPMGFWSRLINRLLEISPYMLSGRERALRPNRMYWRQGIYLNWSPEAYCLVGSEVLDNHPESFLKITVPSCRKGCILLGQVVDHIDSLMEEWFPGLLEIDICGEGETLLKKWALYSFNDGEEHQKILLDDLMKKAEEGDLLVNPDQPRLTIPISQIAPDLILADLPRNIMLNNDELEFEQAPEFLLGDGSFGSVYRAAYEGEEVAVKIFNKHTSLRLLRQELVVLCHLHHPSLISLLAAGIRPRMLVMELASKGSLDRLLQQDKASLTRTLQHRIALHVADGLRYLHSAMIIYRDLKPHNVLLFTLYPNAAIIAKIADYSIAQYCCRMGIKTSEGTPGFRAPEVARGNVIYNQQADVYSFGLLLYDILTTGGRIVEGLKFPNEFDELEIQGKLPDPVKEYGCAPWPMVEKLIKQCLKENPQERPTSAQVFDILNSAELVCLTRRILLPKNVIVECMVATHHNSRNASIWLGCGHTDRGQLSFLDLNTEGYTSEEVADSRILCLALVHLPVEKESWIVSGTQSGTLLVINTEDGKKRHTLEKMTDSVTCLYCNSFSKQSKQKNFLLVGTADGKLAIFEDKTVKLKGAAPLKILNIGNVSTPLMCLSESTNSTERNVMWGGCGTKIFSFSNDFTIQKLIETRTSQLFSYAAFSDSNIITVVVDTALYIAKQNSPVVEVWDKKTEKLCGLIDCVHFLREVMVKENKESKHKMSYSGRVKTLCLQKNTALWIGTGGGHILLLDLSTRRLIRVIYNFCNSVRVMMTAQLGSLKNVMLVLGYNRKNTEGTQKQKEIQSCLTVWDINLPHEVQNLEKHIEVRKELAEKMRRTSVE

Row | SMILES | IC50 [1, 2] [nM] | IC50 [1, 4] [nM] | other results
1 | Cc1cc(Cc2nc3cnc4ccc(C#N)cc4c3n2[C@@H]2CC[C@H](F)C2)no1 (racemic) [Example 68, 1-[cis-3-fluorocyclopentyl]-2-[(5-methyl-1,2-oxazol-3-yl)methyl]-1H-imidazo[4,5-c]quinoline-8-carbonitrile] |  |  | IC50 ([1]; wild type LRRK2, data obtained using the formate salt of the Example): 8.32 nM; IC50 (mutant G2019S LRRK2; data obtained using the formate salt of the Example): 12.3 nM
2 | N#Cc1ccc2ncc3nc(Cc4nc5ccccc5o4)n([C@@H]4CC[C@H](F)C4)c3c2c1 (relative stereo) [Example 65, 2-(1,3-benzoxazol-2-ylmethyl)-1-[cis-3-fluorocyclopentyl]-1H-imidazo[4,5-c]quinoline-8-carbonitrile] | 8.56 |  | IC50 (mutant G2019S LRRK2; [3]): 6.33 nM
3 | Cc1cnc(Cc2nc3cnc4ccc(Cl)cc4c3n2[C@@H]2CC[C@H](F)C2)cn1 (relative stereo) [Example 77, 8-chloro-1-[cis-3-fluorocyclopentyl]-2-[(5-methylpyrazin-2-yl)methyl]-1H-imidazo[4,5-c]quinoline] | 13 |  | IC50 (mutant G2019S LRRK2; [3]): 11.8 nM
4 | Cc1nc2cnc3ccc(Cl)cc3c2n1[C@H]1CCO[C@@H](CC#N)C1 (relative stereo) [enantiomer of Example 31, [cis-4-(8-chloro-2-methyl-1H-imidazo[4,5-c]quinolin-1-yl)tetrahydro-2H-pyran-2-yl]acetonitrile] |  | 1660 | 
5 | Cc1cc(Cc2nc3cnc4ccc(Cl)cc4c3n2[C@H]2CCO[C@@H](C(F)F)C2)no1 (relative stereo) [enantiomer of Example 59, 8-chloro-1-[cis-2-(difluoromethyl)tetrahydro-2H-pyran-4-yl]-2-[(5-methyl-1,2-oxazol-3-yl)methyl]-1H-imidazo[4,5-c]quinoline] |  | 631 | 
6 | Fc1ccc2ncc3nc(Cc4csnn4)n([C@H]4CC[C@@H](F)C4)c3c2c1 (relative stereo) [enantiomer of Example 79, 8-fluoro-1-[cis-3-fluorocyclopentyl]-2-(1,2,3-thiadiazol-4-ylmethyl)-1H-imidazo[4,5-c]quinoline] |  | 7.54 | 
7 | Cc1cnn(Cc2nc3cnc4ccc(C#N)cc4c3n2C2CN(C)CC2(F)F)n1 (single isomer, unassigned) [Example 3, 1-(4,4-Difluoro-1-methylpyrrolidin-3-yl)-2-[(4-methyl-2H-1,2,3-triazol-2-yl)methyl]-1H-imidazo[4,5-c]quinoline-8-carbonitrile] | 31.8 |  | 
8 | Cc1cnn(Cc2nc3cnc4ccc(C#N)cc4c3n2C2CN(C)CC2(F)F)n1 (single isomer, unassigned) [Example 4, 1-(4,4-Difluoro-1-methylpyrrolidin-3-yl)-2-[(4-methyl-2H-1,2,3-triazol-2-yl)methyl]-1H-imidazo[4,5-c]quinoline-8-carbonitrile] | 17.6 |  | IC50 (mutant G2019S LRRK2; [3]): 3.31 nM
9 | N#CCC1CC(n2c(C3CCC3)nc3cnc4ccc(Cl)cc4c32)CCO1 (single isomer, unassigned) [Example 11, [cis-4-(8-Chloro-2-cyclobutyl-1H-imidazo[4,5-c]quinolin-1-yl)tetrahydro-2H-pyran-2-yl]acetonitrile] | 18 |  | IC50 (mutant G2019S LRRK2; [3]): 5.06 nM
10 | Cc1cnc(C(O)c2nc3cnc4ccc(Cl)cc4c3n2[C@@H]2CCO[C@H](C)C2)cn1 (single isomer, unassigned) [Example 14] |  |  | IC50 [1]: 14.2 nM; IC50 (mutant G2019S LRRK2; [3]): 12.8 nM
11 | CCc1nc2cnc3ccc(Cl)cc3c2n1[C@H]1CCO[C@@H](CC#N)C1 [Example 2, [(2R,4S)-4-(8-Chloro-2-ethyl-1H-imidazo[4,5-c]quinolin-1-yl)tetrahydro-2H-pyran-2-yl]acetonitrile] | 1530 |  | 
12 | N#CCC1CC(n2c(C3CCC3)nc3cnc4ccc(Cl)cc4c32)CCO1 (stereo not drawn) [Example 10, [cis-4-(8-Chloro-2-cyclobutyl-1H-imidazo[4,5-c]quinolin-1-yl)tetrahydro-2H-pyran-2-yl]acetonitrile] | 1790 |  | 
13 | FC1(F)COCCC1n1c(Cn2cncn2)nc2cnc3ccc(Cl)cc3c21 (centres unmarked) [Example 54, 8-chloro-1-(3,3-difluorotetrahydro-2H-pyran-4-yl)-2-(1H-1,2,4-triazol-1-ylmethyl)-1H-imidazo[4,5-c]quinoline] | 10.3 | 10.3 | 
14 | Cc1nn2cc(Cc3nc4cnc5ccc(F)cc5c4n3C3CN(C)CC3(F)F)nc2s1 (centres unmarked) [Example 85, 1-(4,4-difluoro-1-methylpyrrolidin-3-yl)-8-fluoro-2-[(2-methylimidazo[2,1-b][1,3,4]thiadiazol-6-yl)methyl]-1H-imidazo[4,5-c]quinoline] | 2.62 |  | 
15 | CC(C#N)Cc1nc2cnc3ccc(Cl)cc3c2n1[C@@H]1CCO[C@H](C)C1 (stereo partly drawn) [diastereomer of Example 78, 3-{8-chloro-1-[(2R,4R)-2-methyltetrahydro-2H-pyran-4-yl]-1H-imidazo[4,5-c]quinolin-2-yl}-2-methylpropanenitrile] |  | 37.2 | 
16 | Cc1nc(Cc2nc3cnc4ccc(C#N)cc4c3n2C2CN(C)CC2(F)F)no1 (stereo not drawn) [enantiomer of Example 32, 1-(4,4-difluoro-1-methylpyrrolidin-3-yl)-2-[(5-methyl-1,2,4-oxadiazol-3-yl)methyl]-1H-imidazo[4,5-c]quinoline-8-carbonitrile] |  | 473 | 
17 | CN1CC(n2c(Cn3cc(C4CC4)nn3)nc3cnc4ccc(Cl)cc4c32)C(F)(F)C1 (stereo not drawn) [enantiomer of Example 47, 8-chloro-2-[(4-cyclopropyl-1H-1,2,3-triazol-1-yl)methyl]-1-(4,4-difluoro-1-methylpyrrolidin-3-yl)-1H-imidazo[4,5-c]quinoline] |  | 97.3 | 
18 | Cc1cn(Cc2nc3cnc4ccc(Cl)cc4c3n2C2CN(C)CC2(F)F)nn1 (stereo not drawn) [enantiomer of Example 48, 8-chloro-1-(4,4-difluoro-1-methylpyrrolidin-3-yl)-2-[(4-methyl-1H-1,2,3-triazol-1-yl)methyl]-1H-imidazo[4,5-c]quinoline] |  | 145 | 
19 | Cc1nnn(Cc2nc3cnc4ccc(Cl)cc4c3n2C2CN(C)CC2(F)F)n1 (stereo not drawn) [enantiomer of Example 49, 8-chloro-1-(4,4-difluoro-1-methylpyrrolidin-3-yl)-2-[(5-methyl-2H-tetrazol-2-yl)methyl]-1H-imidazo[4,5-c]quinoline] |  | 46.2 | 
20 | Cc1cnc(Cc2nc3cnc4ccc(Cl)cc4c3n2C2CN(C)CC2(F)F)cn1 (stereo not drawn) [enantiomer of Example 50, 8-chloro-1-(4,4-difluoro-1-methylpyrrolidin-3-yl)-2-[(5-methylpyrazin-2-yl)methyl]-1H-imidazo[4,5-c]quinoline] |  | 181 | 
21 | COCc1cn(Cc2nc3cnc4ccc(F)cc4c3n2C2CN(C)CC2(F)F)nn1 (stereo not drawn) [enantiomer of Example 53, 1-(4,4-difluoro-1-methylpyrrolidin-3-yl)-8-fluoro-2-{[4-(methoxymethyl)-1H-1,2,3-triazol-1-yl]methyl}-1H-imidazo[4,5-c]quinoline] |  | 229 | 
22 | COCc1cn(Cc2nc3cnc4ccc(Cl)cc4c3n2C2CCOCC2(F)F)nn1 (stereo not drawn) [enantiomer of Example 55, 8-chloro-1-(3,3-difluorotetrahydro-2H-pyran-4-yl)-2-{[4-(methoxymethyl)-1H-1,2,3-triazol-1-yl]methyl}-1H-imidazo[4,5-c]quinoline] |  | 15.3 | 
23 | Cc1nn2cc(Cc3nc4cnc5ccc(F)cc5c4n3C3CN(C)CC3(F)F)nc2s1 (stereo not drawn) [enantiomer of Example 85, 1-(4,4-difluoro-1-methylpyrrolidin-3-yl)-8-fluoro-2-[(2-methylimidazo[2,1-b][1,3,4]thiadiazol-6-yl)methyl]-1H-imidazo[4,5-c]quinoline] |  | 55.9 | 
24 | CN1CC(n2c(Cn3cnnn3)nc3cnc4ccc(Cl)cc4c32)C(F)(F)C1 (stereo not drawn) [enantiomer of Example 86, 8-chloro-1-(4,4-difluoro-1-methylpyrrolidin-3-yl)-2-(1H-tetrazol-1-ylmethyl)-1H-imidazo[4,5-c]quinoline] |  | 271 | 
25 | Cc1cnn(Cc2nc3cnc4ccc(Cl)cc4c3n2C2CN(C)CC2(F)F)n1 (stereo not drawn) [enantiomer of Example 87, 8-chloro-1-(4,4-difluoro-1-methylpyrrolidin-3-yl)-2-[(4-methyl-2H-1,2,3-triazol-2-yl)methyl]-1H-imidazo[4,5-c]quinoline] |  | 37.8 | 
26 | Cc1nc(Cc2nc3cnc4ccc(Cl)cc4c3n2C2CN(C)CC2(F)F)no1 (stereo not drawn) [enantiomer of Example 88, 8-chloro-1-(4,4-difluoro-1-methylpyrrolidin-3-yl)-2-[(5-methyl-1,2,4-oxadiazol-3-yl)methyl]-1H-imidazo[4,5-c]quinoline] |  | 261 | 
27 | Cc1nnc(Cc2nc3cnc4ccc(Cl)cc4c3n2C2CCOCC2(F)F)s1 (stereo not drawn) [enantiomer of Example 92, 8-chloro-1-(3,3-difluorotetrahydro-2H-pyran-4-yl)-2-[(5-methyl-1,3,4-thiadiazol-2-yl)methyl]-1H-imidazo[4,5-c]quinoline] |  | 33.7 | 
28 | FC1(F)COCCC1n1c(Cn2cc(C3CC3)nn2)nc2cnc3ccc(Cl)cc3c21 (stereo not drawn) [enantiomer of Example 94, 8-chloro-2-[(4-cyclopropyl-1H-1,2,3-triazol-1-yl)methyl]-1-(3,3-difluorotetrahydro-2H-pyran-4-yl)-1H-imidazo[4,5-c]quinoline] |  | 9.35 | 
